Experimental data as given in ChEMBL document CHEMBL1157906, “Imidazoacridin-6-ones as novel inhibitors of the quinone oxidoreductase NQO2” (Bioorg Med Chem Lett, 2010).

Assays:
[1] = target: T1, Ribosyldihydronicotinamide dehydrogenase [quinone] (Homo sapiens, UniProt P16083); experiment: Inhibition of human recombinant NQO2 assessed as reduction of DCPIP by spectrophotometry
T1 sequence (P16083 whole entry): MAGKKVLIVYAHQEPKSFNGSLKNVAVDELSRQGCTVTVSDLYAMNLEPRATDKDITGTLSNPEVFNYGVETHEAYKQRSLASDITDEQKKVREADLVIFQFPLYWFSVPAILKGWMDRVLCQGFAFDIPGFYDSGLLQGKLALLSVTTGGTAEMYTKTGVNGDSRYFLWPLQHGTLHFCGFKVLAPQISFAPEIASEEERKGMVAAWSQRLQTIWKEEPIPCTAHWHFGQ

[2] = tested on: HCT-116; experiment: Toxicity in human HCT116 cells after 96 hrs by MTT assay; format: functional
[3] = tested on: Nucleic Acid; experiment: Binding affinity to calf thymus DNA assessed as change in melting temperature at 10 uM relative to control; format: nucleic-acid assay; conditions: Bos taurus

SMILES	IC50 [1] [nM]	Activity [2] [µM]	ΔTm [3] [°C]
Cc1nc2ccc(NCCN(C)C)c3c(=O)c4ccccc4n1c23	323	0.46	7.1
CCc1nc2ccc(NCCN(C)C)c3c(=O)c4ccccc4n1c23	693	0.47	5.1
CCN(CC)CCNc1ccc2ncn3c4ccccc4c(=O)c1c23	427	1	6.4
CCN(CC)CCNc1ccc2ncn3c4cc(O)ccc4c(=O)c1c23	953	2.2	5
CN(C)CCNc1ccc2ncn3c4ccccc4c(=O)c1c23	830	0.57	5.6
CCN(CC)CCNc1ccc2nc(C)n3c4ccc(O)cc4c(=O)c1c23	16	3	8.6
CCN(CC)CCNc1ccc2nc(C)n3c4ccc(OC)cc4c(=O)c1c23	9	3	8.6
CCN(CC)CCNc1ccc2ncn3c4c(OC)ccc(OC)c4c(=O)c1c23	17	1.67	1.8
CN(C)CCNc1ccc2ncn3c4ccc(O)cc4c(=O)c1c23	296	1	5.1
CCN(CC)CCNc1ccc2ncn3c4c(OC)ccc(O)c4c(=O)c1c23	31	0.54	3.1
CCN(CC)CCNc1ccc2ncn3c4ccc(OC)cc4c(=O)c1c23	1000	2.9	4.5
COc1cccc2c1C(=O)c1c(O)c3c(c(O)c1C2=O)C[C@@](O)(C(=O)CO)C[C@@H]3O[C@H]1C[C@H](N)[C@H](O)[C@H](C)O1	–	–	14.5
CN(C)CCCNc1ccc2ncn3c4ccccc4c(=O)c1c23	172	0.86	5.2
CCN(CC)CCNc1ccc2ncn3c4c(OC)cccc4c(=O)c1c23	99	1.7	5
CCN(CC)CCCNc1ccc2ncn3c4ccc(O)cc4c(=O)c1c23	597	0.82	8
CCN(CC)CCNc1ccc2ncn3c4ccc(O)cc4c(=O)c1c23 [C-1311]	148	0.77	4.5
Cc1nc2ccc(NCCN(C)C)c3c(=O)c4cc(O)ccc4n1c23	50	0.65	9.1
CCN(CC)CCNc1ccc2ncn3c4cc(OC)c(OC)c(O)c4c(=O)c1c23	6	0.95	1
